Source: publication PMC5471454, “Integrative approach for the analysis of the proteome-wide response to bismuth drugs in Helicobacter pylori” (Chemical Science, 2017)

Target: T1, HpDnaK (Hsp70) (Helicobacter pylori, UniProt P55994)
T1 construct: gene dnaK; overexpressed and purified full-length protein; native protein in cells for CETSA
T1 sequence (P55994 2-620): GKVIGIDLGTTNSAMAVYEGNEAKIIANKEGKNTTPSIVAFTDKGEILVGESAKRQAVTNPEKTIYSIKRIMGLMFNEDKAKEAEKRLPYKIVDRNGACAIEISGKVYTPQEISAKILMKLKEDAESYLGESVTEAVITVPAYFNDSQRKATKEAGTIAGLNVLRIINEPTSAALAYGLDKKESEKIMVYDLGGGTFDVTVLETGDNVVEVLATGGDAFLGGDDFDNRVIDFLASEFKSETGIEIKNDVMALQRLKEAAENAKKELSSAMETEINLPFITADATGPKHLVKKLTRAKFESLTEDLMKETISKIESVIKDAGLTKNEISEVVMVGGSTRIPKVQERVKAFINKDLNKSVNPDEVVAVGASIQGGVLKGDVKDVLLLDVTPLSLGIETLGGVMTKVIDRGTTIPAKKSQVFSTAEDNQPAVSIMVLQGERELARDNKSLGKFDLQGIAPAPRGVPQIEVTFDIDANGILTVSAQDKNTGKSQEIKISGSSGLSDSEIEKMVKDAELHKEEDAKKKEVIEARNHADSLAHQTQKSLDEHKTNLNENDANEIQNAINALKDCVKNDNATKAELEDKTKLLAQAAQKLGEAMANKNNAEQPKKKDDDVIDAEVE
Test: ATPase assay, released phosphate
Assay type: biochemical
Conditions: no CBS; rate linear within 80 min

## Nc1ncnc2c1ncn2[C@@H]1O[C@H](COP(=O)(O)OP(=O)(O)OP(=O)(O)O)[C@@H](O)[C@H]1O [ATP]
  ATPase assay, released phosphate: rates of ATP hydrolysis measured by monitoring the amounts of released free phosphate
